How the values were obtained:
recombinant human PolRMT = target: T1, recombinant human PolRMT (Homo sapiens, UniProt O00411); test: Single-nucleotide incorporation by PolRMT; assay type: biochemical; details: triphosphate form, fixed saturating concentration 500 μM, rate relative to corresponding natural rNTP
T1 construct: purchased Enzymax (Lexington, KY)
Excerpt: Activated fish sperm DNA was purchased from USB/Affymetrix (Santa Clara, CA) and used as a template for the DNA polymerases alpha, beta, and gamma. The DNA template used in the RNA Pol II assay was a 1,188-bp restriction fragment containing the cytomegalovirus (CMV) immediate early promoter (Promega, Madison, WI). The RNA and DNA oligonucleotides used in the mitochondrial RNA polymerase assay (see Table S1 in the supplemental material) were synthesized and PAGE purified by Thermo Scientific/Dharmacon (Lafayette, CO). RNA primer R12 was 5′-^32P-phosphorylated with [γ-^32P]ATP (3,000 Ci/mmol) and T4 kinase (New England BioLabs, Ipswich, MA).
Human DNA polymerase alpha, isolated from HeLa cell extracts, was from CHIMERx (Madison, WI). Recombinant human DNA polymerase beta, expressed in E. coli, was a gift from Zucai Suo at The Ohio State University. Recombinant human DNA polymerase gamma (including both the large subunit and the small subunit) was cloned, expressed, and purified from insect cells by Gilead Sciences (Foster City, CA) ([13]). RNA PolII was purchased as part of the HeLaScribe nuclear extract in vitro transcription system kit from Promega (Madison, WI). The recombinant human PolRMT and the transcription factors mitochondrial transcription factor A (mtTFA) and B2 (mtTFB2) were purchased from Enzymax (Lexington, KY). FLAG epitope-tagged RNA PolI and PolIII complexes were isolated from rat NSN1 cells and HeLa cells, respectively ([17], [18]). The inhibition of DNA polymerases alpha, beta, and gamma, PolRMT, and PolII and the rate of single-nucleotide incorporation by PolRMT have been described previously in detail ([12], [13], [19]). Inhibition of RNA PolI and PolIII was studied using published methods ([20], [21]). All concentrations were final unless noted otherwise. For the RNA PolI inhibition assay, a reaction mixture containing 50 mM HEPES (pH 7.9), 20% glycerol, 100 mM KCl, 1 mM dithiothreitol (DTT), 50 μg/ml calf thymus DNA, 4 mM MgCl2, 5 or 80 μM UTP (0.25 μl of [5,6-^3H]UTP, >25 Ci/mmol; PerkinElmer), 1 mM noncompeting NTP, competing NTP (5 μM for GTP, CTP, and UTP and 25 μM for ATP), and various concentrations (0 to 500 μM) of NTP analogs was preincubated at 30°C for 5 min. […] After incubation at 30°C for 20 min to 1 h, the reactions were terminated by pipetting the mixtures onto DEAE-cellulose discs (DE81; Whatman), and the products analyzed as described previously ([20], [21]).
Supplementary Table S1: RNA primer and templates used in mitochondrial RNA
polymerase single nucleotide incorporation assay.
Oligonucleotides Sequencesa
Primer (R12) 5’-[…]-3’
Templates (D18) 3’-[…]-5’
a The bold letter in the template sequences denotes the bases that pair with the incoming NTP. […]

[1] = Cytotoxicity in quiescent PBMCs, 5 days; details: human, quiescent PBMCs
Procedure: (§1) Human peripheral blood mononuclear cells (PBMCs) were isolated from human buffy coats obtained from healthy volunteers (Stanford Blood Bank, Palo Alto, CA) using standard Ficoll separation and stimulated as described elsewhere ([13]) and were tested at both quiescent and stimulated stages. Quiescent PBMCs were stimulated with 10 units per ml of recombinant human interleukin 2 (hIL-2) and 1 μg per ml phytohemagglutinin P (PHA-P) for 48 h prior to drug treatment.
(§2) All cells were cultured at 37°C in a 5% CO2 incubator with 90% humidity unless noted otherwise. […] All cells were treated with the various compounds for 5 days, except for human erythroid and myeloid progenitors, which were treated for 14 days. After the incubation period, cell viability was measured by the addition of CellTiter Glo viability reagents (Promega, Madison, WI). The luminescence signal was quantified on an Envision luminescence plate reader (PerkinElmer, Waltham, MA) after incubation of the reagents and cells for 10 min at room temperature. […] CC50 values were calculated as the average of the results of three or four independent experiments.
(§3) Human peripheral blood mononuclear cells (PBMCs) were isolated from human buffy coats
(§4) obtained from normal healthy volunteers (Stanford Medical School Blood Center, Palo Alto,
(§5) CA). Total PBMCs were isolated from buffy coats using standard Ficoll separation and sterile
(§6) cellular isolation techniques performed in a bio-safety cabinet (1). Except where noted, the
(§7) procedure was carried out at room temperature. The final PBMCs pellet was resuspended in
(§8) Logan, UT), penicillin 100 units/mL and streptomycin 100 µg/mL (Gibco). For quiescent
(§9) PBMCs cultures, total cells were seeded in 96-well plates at a density of 1 x 10^6 cells per well, followed by immediate drug treatment. Stimulated PBMCs cultures were set up by seeding the freshly isolated PBMCs in T-175cm2 tissue culture flasks in 100 mL of RPMI containing the same components as the ones used for the quiescent PBMCs but with the addition of 10 units per mL of recombinant human interleukin-2 (hIL-2, Roche, Indianapolis, IN), and 1 µg per mL phytohemagglutinin-P (PHA-P, Sigma-Aldrich, St. Louis, MO) at density of 2  10^6 cells per mL for 48 hours at 37C in a 5% CO2 incubator with 90% humidity, prior to drug treatment.

[2] = Cytotoxicity in stimulated PBMCs, 5 days; details: human, stimulated PBMCs
Procedure: as §1, §2, §3, §4, §5, §6, §7, §8, §9

[3] = Cytotoxicity in MT-4 T-cells, 5-day treatment; details: human, MT-4 cells
Procedure: (§10) Primary human hepatocytes were from Bioreclamation IVT (Westbury, NY) or Life Technologies (Carlsbad, CA).
as §2

[4] = Cytotoxicity in MRC5 fibroblasts, 5-day treatment; details: human, MRC5 fibroblasts
Procedure: as §2
Cell Culture and Cytotoxicity Studies
The Huh-7 cells were maintained in growth medium containing Dulbecco's Modified Eagle
Medium (DMEM, Cellgro) supplemented with 1% Nonessential Amino Acids (NEAA, Cellgro,
Manassas, VA), 10% fetal bovine serum (FBS, HyClone, Logan, UT) and 1% Penicillin-
streptomycin-glutamate (PSG, Invitrogen, Carlsbad, CA). The cells were passaged twice weekly
and maintained at 90% confluence densities.
The HepG2 cells were maintained in Eagle’s Minimum Essential Medium (EMEM) from ATCC
(Manassas, VA) supplemented with 10% FBS, 100 units/mL penicillin and 100 µg/mL
streptomycin (P/S) (Gibco). The cells were passaged twice weekly and maintained at 90%
The PC-3 cells were maintained in Kaighn’s F12 medium (Gibco, Carlsbad, CA) supplemented
with 10% FBS (HyClone, Logan, UT), 100 units/mL penicillin and 100 µg/mL streptomycin
(P/S) (Gibco). The cells were passaged twice weekly and maintained at 90% confluence. Cells
between passages 4 and 15 were used in the assays.
The fibroblast cell line MRC-5 cell line derived from normal lung tissue, was purchased from
ATCC (Manassas, VA) and cultured in Minimum Essential Medium (MEM) (Cellgro, Manassas,
VA) supplemented with 10% FBS (HyClone, Logan, UT) and 1% PSG (Invitrogen). The cells
were passaged twice weekly and maintained at 90% confluence densities.

[5] = Cytotoxicity in primary human hepatocytes, 5 days; details: human, primary human hepatocytes
Procedure: as §10, §2

[6] = Cytotoxicity in HepG2 (galactose) cells, 5-day treatment; details: human, HepG2 cells (galactose)
[7] = Cytotoxicity in Huh7 cells, 5-day treatment (CellTiter Glo); details: human, Huh-7 cells
[8] = Bone marrow myeloid progenitor colony assay, 14 days; assay type: cell-based, human; details: human, read-out: Mean CC50 ± SD in Bone marrow cells Myeloid; for CC50 at 14 days: human bone marrow myeloid progenitors
[9] = test system: mitochondrial DNA-encoded cytochrome c oxidase (COX-1); test: Mitochondrial protein synthesis assay (COX-1, MitoBiogenesis in-cell ELISA) in PC-3 cells; assay type: cell-based, human; details: PC-3 cells; for selectivity of effect on COX-1 versus SDH-A and ATP levels: 5-day treatments
Procedure, shortened: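 PC-3 cells were exposed to compound for 5 days. Protein levels of nuclear-encoded SDH-A and mitochondrial-encoded COX-1 were then quantified by in-cell ELISA (quantitative immunocytochemistry).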

[10] = test system: mitochondrial spare respiratory capacity in PC-3 cells; test: Oxygen consumption rate / spare respiratory capacity in PC-3 cells; details: PC-3 cells, 3-day treatments
[11] = test system: mitochondrial spare respiratory capacity; test: as above; details: human, pH 7.4
[12] = test system: human erythroid progenitors (bone marrow cells); details: read-out: Mean CC50 ± SD in Bone marrow cells Erythroid; 14 days; cited from earlier work
[13] = test system: human myeloid progenitors (bone marrow cells); details: read-out: Mean CC50 ± SD in Bone marrow cells Myeloid; 14 days; cited from earlier work
Quiescent PBMCs = test system: Quiescent PBMCs; parameters: method as in PMID 24419349; details: 5 days; read-out: Mean CC50 ± SD in PBMCs Quiescent; cited from earlier work

T1 sequence (O00411 42-1230): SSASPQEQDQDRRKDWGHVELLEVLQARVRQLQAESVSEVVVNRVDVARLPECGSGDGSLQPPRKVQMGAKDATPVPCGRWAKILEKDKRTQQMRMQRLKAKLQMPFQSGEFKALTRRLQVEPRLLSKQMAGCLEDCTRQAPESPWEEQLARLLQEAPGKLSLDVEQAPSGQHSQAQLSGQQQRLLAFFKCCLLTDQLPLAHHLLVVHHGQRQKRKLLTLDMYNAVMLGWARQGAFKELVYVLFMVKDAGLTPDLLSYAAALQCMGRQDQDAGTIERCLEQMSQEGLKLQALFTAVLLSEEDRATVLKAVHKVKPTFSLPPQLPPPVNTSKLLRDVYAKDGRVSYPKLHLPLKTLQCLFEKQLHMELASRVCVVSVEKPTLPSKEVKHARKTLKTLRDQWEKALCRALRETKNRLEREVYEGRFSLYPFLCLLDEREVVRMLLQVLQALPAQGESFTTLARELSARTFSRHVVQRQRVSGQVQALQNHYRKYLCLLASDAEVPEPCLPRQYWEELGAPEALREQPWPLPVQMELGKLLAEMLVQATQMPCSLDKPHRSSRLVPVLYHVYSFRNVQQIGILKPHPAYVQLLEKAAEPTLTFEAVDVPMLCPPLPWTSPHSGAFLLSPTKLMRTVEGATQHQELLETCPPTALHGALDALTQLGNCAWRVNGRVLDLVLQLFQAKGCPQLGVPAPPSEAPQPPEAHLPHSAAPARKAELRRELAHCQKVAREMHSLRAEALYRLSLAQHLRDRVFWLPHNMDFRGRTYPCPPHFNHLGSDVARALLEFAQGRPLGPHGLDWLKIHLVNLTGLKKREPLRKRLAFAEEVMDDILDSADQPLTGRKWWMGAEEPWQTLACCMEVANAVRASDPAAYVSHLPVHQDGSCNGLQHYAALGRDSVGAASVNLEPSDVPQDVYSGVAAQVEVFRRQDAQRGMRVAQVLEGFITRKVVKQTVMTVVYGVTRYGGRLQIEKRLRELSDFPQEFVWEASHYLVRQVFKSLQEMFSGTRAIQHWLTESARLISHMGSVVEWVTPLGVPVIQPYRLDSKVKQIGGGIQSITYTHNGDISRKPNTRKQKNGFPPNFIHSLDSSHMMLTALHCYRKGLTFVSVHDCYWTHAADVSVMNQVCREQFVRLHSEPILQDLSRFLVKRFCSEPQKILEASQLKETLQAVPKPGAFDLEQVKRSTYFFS

Substrate incorporation (% of NTP [mean ± SD]) of PolRMT (recombinant human PolRMT)	Compound	CC50 at 5 days [1] [µM]	CC50 at 5 days [2] [µM]	CC50 at 5 days [3] [µM]	CC50 at 5 days [4] [µM]	CC50 at 5 days [5] [µM]	CC50 at 5 days [6] [µM]	CC50 at 5 days [7] [µM]	CC50 at 14 days [8] [µM]	further results
0.81 ± 0.13 % of NTP	C[C@@]1(F)[C@H](O)[C@@H](CO)O[C@H]1n1ccc(N)nc1=O [PSI-6130]	> 100	100	> 100	> 89	> 100	> 89	> 89	–	–
1.6 ± 0.2 % of NTP	CCOc1nc(N)nc2c1ncn2[C@@H]1O[C@@H]2COP(=O)(OC(C)C)O[C@H]2[C@@]1(C)F (stereo partly drawn) [PSI-938]	> 100	> 100	> 100	> 89	> 100	> 89	> 89	> 100	–

More lines, now with the values behind:

Compound	Substrate incorporation (% of NTP [mean ± SD]) of PolRMT (recombinant human PolRMT)	CC50 at 5 days [1] [µM]	CC50 at 5 days [2] [µM]	CC50 at 5 days [3] [µM]	CC50 at 5 days [4] [µM]	CC50 at 5 days [5] [µM]	CC50 at 5 days [6] [µM]	CC50 at 5 days [7] [µM]	CC50 at 14 days [8] [µM]	further results
C[C@@]1(O)[C@H](O)[C@@H](COP(=O)(O)OP(=O)(O)OP(=O)(O)O)O[C@H]1n1cnc2c(=O)[nH]c(N)nc21 [2′CMeGTP]	92 ± 33 % of NTP	–	–	–	–	–	–	–	–	–
COc1nc(N)nc2c1ncn2[C@@H]1O[C@H](COP(=O)(N[C@@H](C)C(=O)OCC(C)(C)C)Oc2cccc3ccccc23)[C@@H](O)[C@@]1(C)O (stereo partly drawn) [BMS-986094]	rates similar to those of their corresponding natural rNTPs	–	–	–	–	–	–	–	–	CC50 [8]: 2.6 ± 0.5 µM; potentiation of mitochondrial and cellular toxicity by coincubation with RBV ([9]; 5-day treatment, RBV 10 μM): 3- to 4 fold; selectivity of effect on COX-1 versus SDH-A and ATP levels [9]: selective inhibition of COX-1 synthesis; selectivity of effect on spare respiratory capacity versus DNA and ATP levels [10]: selective inhibition of mitochondrial respiration; CC50 at 3 days [11]: 0.48 ± 0.07 µM
C[C@@]1(O)[C@H](O)[C@@H](CO)O[C@H]1n1ccc(N)nc1=O [2′CMeC, 2′-C-methyl (2′CMe) cytidine]	–	> 100	64 ± 18	19 ± 6	69 ± 1	> 100	> 89	> 89	76 ± 16	CC50 at 3 days ([11]; PC-3 cells): 100 µM
CC(C)OC(=O)[C@H](C)N[P@](=O)(OC[C@H]1O[C@@H](n2ccc(=O)[nH]c2=O)[C@](C)(F)[C@@H]1O)Oc1ccccc1 [Sofosbuvir]	0.45 ± 0.40 % of NTP	–	–	–	–	–	–	–	–	Substrate incorporation (% of NTP [mean ± SD]) of PolRMT (recombinant human PolRMT; listed as sofosbuvir): < 1 % of NTP; CC50 [12]: > 100 µM; CC50 [13]: > 100 µM
[N-]=[N+]=N[C@]1(CO)O[C@@H](n2ccc(N)nc2=O)[C@H](O)[C@@H]1O [4′-AzidoC, 4′-azido cytidine]	–	> 100	> 100	> 100	> 89	> 100	> 89	> 89	108 ± 12	selectivity of effect on COX-1 versus SDH-A and ATP levels [9]: selective inhibition of COX-1 synthesis; selectivity of effect on spare respiratory capacity versus DNA and ATP levels [10]: selective inhibition of mitochondrial respiration; CC50 at 3 days ([11]; PC-3 cells): 4.5 ± 0.3 µM
CC(C)OC(=O)[C@H](C)N[P@](=O)(OC[C@H]1O[C@@](C#N)(c2ccc3c(N)ncnn23)[C@](C)(O)[C@@H]1OC(=O)C(C)C)Oc1ccccc1 [GS-6620]	–	–	–	–	–	–	–	–	–	CC50 (Quiescent PBMCs): > 100 µM; CC50 [12]: 15 ± 7 µM; CC50 [13]: 3.1 ± 2.6 µM
